Data published in patent US8063209B2, “Phosphonyl ester conjugates as prodrugs” (priority 2004, dated 2011).
Like-named read-outs stand apart in the source and are kept apart here.

Experiments:
hPepT1 = target: T1, hPepT1 (Homo sapiens, UniProt P46059); experiment: Competitive binding (3H Gly-Sar uptake inhibition) in hPepT1 over-expressing DC5 cells; type: cell-based; details: for affinity for PepT1: DC5 cells over-expressing hPepT1
T1 construct: expressed in transfected cells; host or cells: DC5 cells (hPepT1 over-expressing cell line)
T1 sequence (P46059 1-708): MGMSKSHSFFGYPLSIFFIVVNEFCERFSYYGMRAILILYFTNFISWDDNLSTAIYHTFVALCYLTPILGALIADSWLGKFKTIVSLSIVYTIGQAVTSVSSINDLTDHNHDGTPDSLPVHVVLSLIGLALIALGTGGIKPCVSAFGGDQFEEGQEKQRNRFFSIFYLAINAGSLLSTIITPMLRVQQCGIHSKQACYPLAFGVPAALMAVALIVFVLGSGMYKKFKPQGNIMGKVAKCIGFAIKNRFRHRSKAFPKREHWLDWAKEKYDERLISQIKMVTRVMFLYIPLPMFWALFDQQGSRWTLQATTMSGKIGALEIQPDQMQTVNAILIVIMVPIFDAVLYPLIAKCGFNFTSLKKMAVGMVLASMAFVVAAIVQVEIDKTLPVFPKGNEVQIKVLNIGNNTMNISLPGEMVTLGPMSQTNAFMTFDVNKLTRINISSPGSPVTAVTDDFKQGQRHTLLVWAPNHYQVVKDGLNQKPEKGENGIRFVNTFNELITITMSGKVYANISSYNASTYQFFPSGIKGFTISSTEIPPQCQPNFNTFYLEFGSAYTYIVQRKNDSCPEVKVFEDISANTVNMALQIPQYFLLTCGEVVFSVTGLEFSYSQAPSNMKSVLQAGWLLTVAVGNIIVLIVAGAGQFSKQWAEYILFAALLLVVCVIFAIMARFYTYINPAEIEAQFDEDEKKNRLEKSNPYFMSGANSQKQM
Method: Ki values for the cidofovir compounds were determined in the hPepT1 over-expressing cell line (DC5) using ^3H glycine-sarcosine (Gly-Sar). DC5 cells were plated (12,000 cells/well) in 96-well tissue culture plates (Falcon) and allowed to grow for 4 days. The cells were washed once with 200 μl of uptake buffer and aspirated. The plates were cooled to 4° C. and 25 μl of uptake buffer containing 50 μM Gly-Sar (0.5 μCi/ml) was added. The uptake buffer also contained the test cidofovir-based compounds over a range of concentrations. Uptake was initiated by placing the plate in a shaker water bath (37° C.) and terminated at 10 min by rapid washing with multiple changes of 4° C. PBS (Sigma). The radioactive peptide was extracted from the cell layer with 200 μl of methanol:water (1:1) and counted in 4 ml of CytoScint ESTM scintillation cocktail (ICN). Non-linear regression analysis of the data was used to determine the IC50 using the solver function in Microsoft Excel.

[1] = pH 3-5
[2] = Single pass intestinal perfusion with portal vein blood collection; type: in vivo, rat; details: for Pe-mes (mesenteric permeability): rat in situ single pass intestinal perfusion, portal vein plasma, pH 7.5 buffer
Method: Male albino Sprague-Dawley rats, 9-10 weeks old and weighing 250-400 g were used in the study. Prior to each experiment, the rats were fasted for 18 h with free access to water. The rats were anesthetized with an i.m. injection of ketamine/xylazinelbutorphanol (87, 6, and 0.2 mg/kg body weight, respectively). The abdomen was opened by a midline incision of 4-5 cm. A suitable intestinal segment of approximately 10-20 cm was cannulated on two ends and connected to a syringe pump that guided the solution through a water bath of 37° C. This isolated segment was then rinsed with buffer at the respective pH at a flow-rate of 0.5 ml/min in order to clean out any residual debris. A 10 mM HEPES (pH 7.5) buffer containing 135 mM NaCl, 5 mM KCl and 0.01% PEG 4000 was used for the perfusion buffer. The intestinal segments were perfused at a flow rate of approximately […] with these buffers containing test drug and ^14C-PEG 4000 as a non-absorbable marker for measuring water flux. […] Sample analysis for ^14C (PEG-4000) was performed by scintillation counting. For these studies, we also took blood from the portal vein (prehepatic) as described below. After a segment of intestine was cannulated, the portal vein was then immediately cannulated using a 24-gauge Angeocath catheter (Becton Dickinson, Sandy, Utah). The cannula was secured in place using cyanoacrylate glue or surgical tape and connected to an approximately 35 cm long Silastic tubing, which allowed blood to flow into vials placed about 25 cm below the mesenteric vein. The single-pass intestinal perfusion was initiated at this time. Blood flowing out of the mesenteric vein from the isolated intestinal segment was collected directly into vials, centrifuged immediately and plasma was separated and stored at −80° C.
Rat plasma samples were acidified and processed with solid phase extraction. Briefly, a cation exchange solid-phase cartridge (MCX, 30 mg/i. cc, Waters) was activated with 1.0 ml of methanol and equilibrated with 1.0 ml of water. A 500 μl aliquot of rat plasma was acidified and loaded onto the cartridge. After washing with 1.0 ml of 0.1 N HCl and 1.0 ml methanol, the compounds were eluted with 1 ml of 5% NH4OH in methanol. The solvent was evaporated under vacuum and the residue was reconstituted in 200 μl of water. Samples were analyzed using a LC-MS/MS system (Micromass Quattro II, HP 1100). Ten μl of sample was separated with a Cs column (2.1×150 mm) using a mobile phase of 5-10% acetonitrile:water containing 0.5% formic acid.
From the plasma concentration of compound, the mesenteric permeability was determined by substitution into Eq. (1), Flux=(A)(Pe-mes)(Ci) Eq. (1) where Flux is equal to the portal blood flow (estimated at 1 ml/min in the rat) X the steady state mesenteric blood concentration of cidofovir-based compound, A is the absorptive area of the intestine (estimated at 12.56 cm^2 in the rat intestine), Pe-mes is the mesenteric permeability (cm/s), and Ci is the starting concentration of the drug in the perfusate ([…]).

[3] = cell and tissue homogenates
[4] = in vivo; cited from earlier work
[5] = DC5 cells, 50 μM 3H Gly-Sar, 10 min, 37° C., read-out: Gly-Sar inhibition, Ki

Structure (SMILES) | Ki (hPepT1) [mM] | affinity for PepT1 (hPepT1) | Pe-mes (mesenteric permeability) [2] [cm/s × 10^5] | Ki (hPepT1; [5]) [mM] | also measured
COC(=O)[C@H](COP1(=O)CO[C@@H](Cn2ccc(N)nc2=O)CO1)NC(=O)[C@@H](N)C(C)C (mixture of isomers) [Compound 4, cHPMPC-Val-Ser(OMe)] | 2.7 ± 0.1 | significant affinity | 1.18 | – | stability in buffer [1]: stable; transport on co-dosing with bestatin ([2]; co-dosing with the aminopeptidase inhibitor bestatin): enhanced transport; transport on co-perfusion with Gly-Sar ([2]; in situ perfusion model, co-perfusion with Gly-Sar): almost completely suppressed; transport vs. the parent drug ([2]; rat model): enhanced transport; release of active drug [3]: rapidly released the active drug
COC(=O)[C@H](COP1(=O)CO[C@@H](Cn2ccc(N)nc2=O)CO1)NC(=O)[C@@H](N)CC(C)C (mixture of isomers) [Compound 7, cHPMPC-Leu-Ser(OMe)] | – | significant affinity | 0.48 | 5.4 ± 0.2 | –
CC(C)[C@H](N)C(=O)OCCOCn1cnc2c(=O)[nH]c(N)nc21 [Valacyclovir] | – | – | – | – | bioavailability enhancement compared to parent drug acyclovir [4]: 3- to 5 fold
Nc1ccn(C[C@H]2COP(=O)(O)CO2)c(=O)n1 [Cyclic cidofovir, reference compound] | – | – | 0.003 | 10.7 ± 0.2 | –
COC(=O)C(COP1(=O)COC(Cn2ccc(N)nc2=O)CO1)NC(=O)C(C)N (stereo not shown) [Compound 6, cHPMPC-Ala-Ser(OMe)] | 3.4 ± 0.2 | significant affinity | 0.98 | – | –
Nc1ccn(C[C@@H](CO)OCP(=O)(O)O)c(=O)n1 [Cidofovir, (S)-1-(3-hydroxy-2-phosphonylmethoxypropyl)cytosine, reference compound] | – | – | 0.052 | 10.8 ± 0.3 | –
